Measured values published in article PMC6272684, “Synthesis, Antiproliferative and Antifungal Activities of 1,2,3-Triazole-Substituted Carnosic Acid and Carnosol Derivatives” (Molecules, 2015).
In brackets after ≈: the same amount, converted by molar mass.

Assays:
[1] = test system: C. albicans ATCC 10231; assay: Antifungal broth microdilution (CLSI M27-A3), growth inhibition; type: cell-based, Candida albicans
Procedure: (§1) The antifungal properties of compounds 1–24 against two clinical important fungal species, C. albicans ATCC 10231 and C. neoformans ATCC 32264 were investigated. Results were expressed as the percentages of inhibition of each fungus in the range 250–3.9 μg∙mL^−1 by using the standardized microbroth dilution method M-27A3 of Clinical and Laboratory Standards Institute which assures reliable and reproducible results.
(§2) For the antifungal evaluation, standardized strains from the American Type Culture Collection (ATCC), Rockville, MD, USA, were used. The microorganisms included yeasts (Candida albicans ATCC 10231 and Cryptococcus neoformans ATCC 32264). Strains were grown on Sabouraud-chloramphenicol agar slants for 48 h at 30 °C, maintained on slopes of Sabouraud-dextrose agar (SDA, Oxoid), and subcultured every 15 days to prevent pleomorphic transformations. Inocula of cell or spore suspensions were obtained according to reported procedures and adjusted to 1–5 × 10^3 cells/spores with colony forming units (CFU)/mL [29].
(§3) Broth microdilution techniques were performed in 96-well microplates according to the Clinical and Laboratory Standards Institute Reference Method for Broth Dilution Antifungal Susceptibility Testing of Yeasts, Approved Standard M27-A3 [29]. For the assay, compound test wells (CTWs) were prepared with stock solutions of each compound in DMSO (maximum concentration ≤1%), diluted with RPMI-1640, to final concentrations of 250–3.9 μg∙mL^−1. An inoculum suspension (100 μL) was added to each well (final volume in the well = 200 μL). A growth control well (GCW) (containing medium, inoculum, and the same amount of DMSO used in a CTW, but compound-free) and a sterility control well (SCW) (sample, medium, and sterile water instead of inoculum) were included for each fungus tested. Microtiter trays were incubated in a moist, dark chamber at 30 °C for 48 h for both yeasts. Microplates were read in a VERSA Max microplate reader (Molecular Devices, Sunnyvale, CA, USA). Amphotericin B (Sigma-Aldrich) was used as positive control. Tests were performed in triplicate. Reduction of growth for each compound concentration was calculated as follows: % of inhibition = 100 − (OD 405 CTW − OD 405 SCW)/(OD 405 GCW − OD 405 SCW). The means ± SEM were the results of triplicate tests. Three endpoints were defined from the assay explained above and the dose-response curves. Minimum Inhibitory concentration (MIC) resulting in total fungal growth inhibition was named MIC100 while MIC50 was defined as the minimum concentration that inhibits 50% of the fungal growth.

[2] = test system: C. neoformans ATCC 32264; assay: as above; type: cell-based, Cryptococcus neoformans
Procedure: as §1, §2, §3

| SMILES | Inhibition percentage against C. albicans ATCC 10231 ([1]; 3.9 μg∙mL^−1, 48 h) [%] | Inhibition percentage against C. albicans ATCC 10231 ([1]; 7.8 μg∙mL^−1, 48 h) [%] | Inhibition percentage against C. albicans ATCC 10231 ([1]; 15.6 μg∙mL^−1, 48 h) [%] | Inhibition percentage against C. albicans ATCC 10231 ([1]; 62.5 μg∙mL^−1, 48 h) [%] | Inhibition percentage against C. albicans ATCC 10231 ([1]; 125 μg∙mL^−1, 48 h) [%] | Inhibition percentage against C. albicans ATCC 10231 ([1]; 250 μg∙mL^−1, 48 h) [%] | Inhibition percentage against C. albicans ATCC 10231 ([1]; 31. μg∙mL^−1, 48 h) [%] | MIC50 (minimum concentration to inhibit 50% of fungal growth), C. albicans ([1]; C. albicans ATCC 10231) [µg/mL] | Inhibition percentage against C. neoformans ATCC 32264 ([2]; 3.9 μg∙mL^−1, 48 h) [%] | Inhibition percentage against C. neoformans ATCC 32264 ([2]; 7.8 μg∙mL^−1, 48 h) [%] | Inhibition percentage against C. neoformans ATCC 32264 ([2]; 15.6 μg∙mL^−1, 48 h) [%] | Inhibition percentage against C. neoformans ATCC 32264 ([2]; 31.2 μg∙mL^−1, 48 h) [%] | Inhibition percentage against C. neoformans ATCC 32264 ([2]; 62.5 μg∙mL^−1, 48 h) [%] | Inhibition percentage against C. neoformans ATCC 32264 ([2]; 125 μg∙mL^−1, 48 h) [%] | Inhibition percentage against C. neoformans ATCC 32264 ([2]; 250 μg∙mL^−1, 48 h) [%] | MIC50 (minimum concentration to inhibit 50% of fungal growth), C. neoformans ([2]; C. neoformans ATCC 32264) [µg/mL] | also measured |
| --- | --- | --- | --- | --- | --- | --- | --- | --- | --- | --- | --- | --- | --- | --- | --- | --- | --- |
| C[C@@H]1[C@H](O)[C@@H](C)/C=C/C=C/C=C/C=C/C=C/C=C/C=C/[C@H](O[C@@H]2O[C@H](C)[C@@H](O)[C@H](N)[C@@H]2O)C[C@@H]2O[C@](O)(C[C@@H](O)C[C@@H](O)[C@H](O)CC[C@@H](O)C[C@@H](O)CC(=O)O[C@H]1C)C[C@H](O)[C@H]2C(=O)O [Amph B, amphotericin B, reference compound] |  |  |  |  |  |  |  |  |  |  |  |  |  |  |  |  | inhibition at 3.9 µg/mL ([1]; Candida albicans, ATCC10231, 3.9 μg∙mL^−1, 48 h, read-out: Inhibition percentage against C. albicans ATCC 10231): 100%; inhibition at 7.8 µg/mL ([1]; Candida albicans, ATCC10231, 7.8 μg∙mL^−1, 48 h, read-out: Inhibition percentage against C. albicans ATCC 10231): 100%; inhibition at 15.6 µg/mL ([1]; Candida albicans, ATCC10231, 15.6 μg∙mL^−1, 48 h, read-out: Inhibition percentage against C. albicans ATCC 10231): 100%; inhibition at 62.5 µg/mL ([1]; Candida albicans, ATCC10231, 62.5 μg∙mL^−1, 48 h, read-out: Inhibition percentage against C. albicans ATCC 10231): 100%; inhibition at 125 µg/mL ([1]; Candida albicans, ATCC10231, 125 μg∙mL^−1, 48 h, read-out: Inhibition percentage against C. albicans ATCC 10231): 100%; inhibition at 250 µg/mL ([1]; Candida albicans, ATCC10231, 250 μg∙mL^−1, 48 h, read-out: Inhibition percentage against C. albicans ATCC 10231): 100%; MIC50 ([1]; Candida albicans, ATCC10231, C. albicans ATCC 10231, read-out: MIC50 (minimum concentration to inhibit 50% of fungal growth), C. albicans): 0.25 µg/mL (≈ 0.271 µM); inhibition at 3.9 µg/mL ([2]; Cryptococcus neoformans, ATCC32264, 3.9 μg∙mL^−1, 48 h, read-out: Inhibition percentage against C. neoformans ATCC 32264): 100%; inhibition at 7.8 µg/mL ([2]; Cryptococcus neoformans, ATCC32264, 7.8 μg∙mL^−1, 48 h, read-out: Inhibition percentage against C. neoformans ATCC 32264): 100%; inhibition at 15.6 µg/mL ([2]; Cryptococcus neoformans, ATCC32264, 15.6 μg∙mL^−1, 48 h, read-out: Inhibition percentage against C. neoformans ATCC 32264): 100%; inhibition at 31.2 µg/mL ([2]; Cryptococcus neoformans, ATCC32264, 31.2 μg∙mL^−1, 48 h, read-out: Inhibition percentage against C. neoformans ATCC 32264): 100%; inhibition at 62.5 µg/mL ([2]; Cryptococcus neoformans, ATCC32264, 62.5 μg∙mL^−1, 48 h, read-out: Inhibition percentage against C. neoformans ATCC 32264): 100%; inhibition at 125 µg/mL ([2]; Cryptococcus neoformans, ATCC32264, 125 μg∙mL^−1, 48 h, read-out: Inhibition percentage against C. neoformans ATCC 32264): 100%; inhibition at 250 µg/mL ([2]; Cryptococcus neoformans, ATCC32264, 250 μg∙mL^−1, 48 h, read-out: Inhibition percentage against C. neoformans ATCC 32264): 100%; MIC50 ([2]; Cryptococcus neoformans, ATCC32264, C. neoformans ATCC 32264, read-out: MIC50 (minimum concentration to inhibit 50% of fungal growth), C. neoformans): 0.5 µg/mL (≈ 0.541 µM) |
| COC(=O)C12CCCC(C)(C)C1CCc1cc(C(C)C)c(OC(=O)CCc3cn(CSc4ccccc4)nn3)c(OC(=O)CCc3cn(CSc4ccccc4)nn3)c12 (stereo not shown) [Compound 9, Methyl(11,12-O-(3-(((1-phenylthio)methyl)-1H-1,2,3-triazol-4-yl)-propanoyloxy)-abieta-8,11,13-triene)-20-oate] | 0.0 | 0.0 | 3.5 ± 0.3 | 9.4 ± 0.7 | 19.2 ± 0.1 | 15.9 ± 1.2 | 4.7 ± 0.1 | >250 | 0.0 | 5.1 ± 0.7 | 7.3 ± 0.4 | 13.7 ± 1.5 | 23.4 ± 1.3 | 53.6 ± 2.6 | 62.4 ± 3.8 | 125 |  |
| COC(=O)C12CCCC(C)(C)C1CCc1cc(C(C)C)c(OC(=O)CCCc3cn(CSc4ccccc4)nn3)c(OC(=O)CCCc3cn(CSc4ccccc4)nn3)c12 (stereo not shown) [Compound 10, Methyl(11,12-O-(4-(((1-phenylthio)methyl)-1H-1,2,3-triazol-4-yl)-butanoyloxy)-abieta-8,11,13-triene)-20-oate] | 1.3 ± 1.3 | 2.8 ± 0.1 | 3.9 ± 0.9 | 10.1 ± 0.9 | 18.8 ± 0.4 | 35.0 ± 0.8 | 5.1 ± 1.3 | >250 | 0.0 | 11.3 ± 0.5 | 14.4 ± 0.8 | 18.6 ± 1.5 | 19.1 ± 1.8 | 42.9 ± 2.0 | 63.9 ± 2.9 | 250 |  |
| COC(=O)C12CCCC(C)(C)C1CCc1cc(C(C)C)c(OC(=O)CCCc3cn(Cc4ccccc4)nn3)c(OC(=O)CCCc3cn(Cc4ccccc4)nn3)c12 (stereo not shown) [Compound 12, Methyl(11,12-O-(4-(1-benzyl-1H-1,2,3-triazol-4-yl)-butanoyloxy)-abieta-8,11,13-triene)-20-oate] | 3.4 ± 0.3 | 3.6 ± 0.4 | 5.6 ± 1.9 | 14.9 ± 1.1 | 27.9 ± 0.1 | 50.0 ± 5.0 | 9.3 ± 2.6 | 250 | 0.0 | 0.0 | 7.7 ± 1.6 | 9.6 ± 0.8 | 17.3 ± 0.2 | 67.5 ± 0.7 | 63.1 ± 2.1 | 125 |  |
| COC(=O)C12CCCC(C)(C)C1CCc1cc(C(C)C)c(OC(=O)CCc3cn(Cc4ccc(Br)cc4)nn3)c(OC(=O)CCc3cn(Cc4ccc(Br)cc4)nn3)c12 (stereo not shown) [Compound 13, Methyl(11,12-O-(3-(1-(4-bromobenzyl)-1H-1,2,3-triazol-4-yl)-propanoyloxy)-abieta-8,11,13-triene)-20-oate] | 0.0 | 0.6 ± 0.1 | 1.3 ± 0.3 | 6.7 ± 0.1 | 10.7 ± 0.3 | 17.6 ± 0.2 | 4.3 ± 0.4 | >250 | 5.8 ± 0.6 | 10.0 ± 1.0 | 13.3 ± 0.3 | 13.7 ± 0.6 | 16.3 ± 1.1 | 16.8 ± 1.8 | 25.7 ± 0.5 | >250 |  |
